Measured values taken from US8691865B2 (AbbVie Inc., priority 2008, dated 2014).

What follows are molecules tested against human Cav2.2 (Homo sapiens, UniProt Q00975) (assay: Assessment of calcium channel activity using FLIPR (Ca2+ influx in IMR32 cells)). Conditions: not given.
Assay type: cell-based
In short: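 IC50 values derive from nonlinear sigmoidal fitting of percent inhibition, relative to inhibitor-free activity, of Ca2+ influx read by FLIPR. Cells were IMR32 human neuroblastoma, plated at 1−1.2×10^5 per well and grown 48 h at 37 °C.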

human Cav2.2, sequence (Q00975 whole entry): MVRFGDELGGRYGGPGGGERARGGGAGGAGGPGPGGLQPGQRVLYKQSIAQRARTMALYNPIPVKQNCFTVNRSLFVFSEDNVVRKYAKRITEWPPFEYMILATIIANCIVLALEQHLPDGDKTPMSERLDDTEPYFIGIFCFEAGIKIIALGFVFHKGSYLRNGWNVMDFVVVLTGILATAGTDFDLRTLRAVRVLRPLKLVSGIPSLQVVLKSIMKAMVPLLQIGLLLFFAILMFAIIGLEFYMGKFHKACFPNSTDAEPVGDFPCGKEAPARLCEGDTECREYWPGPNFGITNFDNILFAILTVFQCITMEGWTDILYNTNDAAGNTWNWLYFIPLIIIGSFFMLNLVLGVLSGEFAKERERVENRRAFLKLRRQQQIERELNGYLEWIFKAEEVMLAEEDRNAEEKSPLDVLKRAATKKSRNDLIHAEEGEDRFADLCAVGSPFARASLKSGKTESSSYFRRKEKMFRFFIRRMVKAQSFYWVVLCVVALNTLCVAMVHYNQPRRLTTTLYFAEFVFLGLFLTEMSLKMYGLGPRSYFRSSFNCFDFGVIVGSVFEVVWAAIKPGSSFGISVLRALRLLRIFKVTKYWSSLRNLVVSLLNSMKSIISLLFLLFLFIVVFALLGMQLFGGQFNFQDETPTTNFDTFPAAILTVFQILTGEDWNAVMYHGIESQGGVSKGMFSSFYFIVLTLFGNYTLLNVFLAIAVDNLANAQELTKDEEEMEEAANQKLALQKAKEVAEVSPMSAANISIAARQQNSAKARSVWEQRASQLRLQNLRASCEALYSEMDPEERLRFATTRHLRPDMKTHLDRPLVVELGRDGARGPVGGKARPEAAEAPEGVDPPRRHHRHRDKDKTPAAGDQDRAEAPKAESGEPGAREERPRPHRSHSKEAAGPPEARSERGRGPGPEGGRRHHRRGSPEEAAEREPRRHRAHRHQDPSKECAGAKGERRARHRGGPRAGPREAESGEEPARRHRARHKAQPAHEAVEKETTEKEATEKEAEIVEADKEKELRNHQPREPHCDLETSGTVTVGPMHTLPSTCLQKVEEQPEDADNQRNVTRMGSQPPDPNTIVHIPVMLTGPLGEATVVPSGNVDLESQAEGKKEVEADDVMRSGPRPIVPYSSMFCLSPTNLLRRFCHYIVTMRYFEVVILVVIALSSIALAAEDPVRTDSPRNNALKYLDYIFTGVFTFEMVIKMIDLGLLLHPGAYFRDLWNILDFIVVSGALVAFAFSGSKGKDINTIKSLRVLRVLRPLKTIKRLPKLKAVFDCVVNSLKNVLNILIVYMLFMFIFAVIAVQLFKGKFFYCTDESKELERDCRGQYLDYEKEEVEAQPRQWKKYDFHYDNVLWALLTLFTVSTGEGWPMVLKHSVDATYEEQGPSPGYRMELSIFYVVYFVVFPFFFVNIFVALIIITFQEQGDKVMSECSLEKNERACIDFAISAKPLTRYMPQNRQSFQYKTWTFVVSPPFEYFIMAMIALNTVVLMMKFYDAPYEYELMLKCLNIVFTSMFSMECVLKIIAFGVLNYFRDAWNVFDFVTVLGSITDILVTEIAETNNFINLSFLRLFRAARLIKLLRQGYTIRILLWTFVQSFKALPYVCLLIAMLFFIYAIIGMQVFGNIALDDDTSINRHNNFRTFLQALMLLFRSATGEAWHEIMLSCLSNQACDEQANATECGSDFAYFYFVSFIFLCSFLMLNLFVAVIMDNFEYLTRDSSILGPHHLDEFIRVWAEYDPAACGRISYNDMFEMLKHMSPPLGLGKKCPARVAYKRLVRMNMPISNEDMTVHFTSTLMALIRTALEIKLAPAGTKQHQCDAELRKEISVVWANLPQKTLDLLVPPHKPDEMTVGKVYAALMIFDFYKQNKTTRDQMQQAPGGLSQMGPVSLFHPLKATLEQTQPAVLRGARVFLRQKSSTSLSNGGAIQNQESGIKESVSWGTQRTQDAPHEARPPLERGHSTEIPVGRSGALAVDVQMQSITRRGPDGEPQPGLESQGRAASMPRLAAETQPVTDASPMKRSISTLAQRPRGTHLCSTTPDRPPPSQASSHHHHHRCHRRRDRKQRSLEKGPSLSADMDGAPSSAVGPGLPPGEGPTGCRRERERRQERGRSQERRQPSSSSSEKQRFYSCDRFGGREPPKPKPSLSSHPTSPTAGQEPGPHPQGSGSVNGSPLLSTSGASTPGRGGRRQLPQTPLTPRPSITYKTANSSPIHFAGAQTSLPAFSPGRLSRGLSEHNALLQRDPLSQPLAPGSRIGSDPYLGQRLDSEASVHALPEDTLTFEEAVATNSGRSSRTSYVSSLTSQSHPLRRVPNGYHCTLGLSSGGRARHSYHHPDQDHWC
human Cav2.2, sequence (P54289 25-956 partner limits assumed): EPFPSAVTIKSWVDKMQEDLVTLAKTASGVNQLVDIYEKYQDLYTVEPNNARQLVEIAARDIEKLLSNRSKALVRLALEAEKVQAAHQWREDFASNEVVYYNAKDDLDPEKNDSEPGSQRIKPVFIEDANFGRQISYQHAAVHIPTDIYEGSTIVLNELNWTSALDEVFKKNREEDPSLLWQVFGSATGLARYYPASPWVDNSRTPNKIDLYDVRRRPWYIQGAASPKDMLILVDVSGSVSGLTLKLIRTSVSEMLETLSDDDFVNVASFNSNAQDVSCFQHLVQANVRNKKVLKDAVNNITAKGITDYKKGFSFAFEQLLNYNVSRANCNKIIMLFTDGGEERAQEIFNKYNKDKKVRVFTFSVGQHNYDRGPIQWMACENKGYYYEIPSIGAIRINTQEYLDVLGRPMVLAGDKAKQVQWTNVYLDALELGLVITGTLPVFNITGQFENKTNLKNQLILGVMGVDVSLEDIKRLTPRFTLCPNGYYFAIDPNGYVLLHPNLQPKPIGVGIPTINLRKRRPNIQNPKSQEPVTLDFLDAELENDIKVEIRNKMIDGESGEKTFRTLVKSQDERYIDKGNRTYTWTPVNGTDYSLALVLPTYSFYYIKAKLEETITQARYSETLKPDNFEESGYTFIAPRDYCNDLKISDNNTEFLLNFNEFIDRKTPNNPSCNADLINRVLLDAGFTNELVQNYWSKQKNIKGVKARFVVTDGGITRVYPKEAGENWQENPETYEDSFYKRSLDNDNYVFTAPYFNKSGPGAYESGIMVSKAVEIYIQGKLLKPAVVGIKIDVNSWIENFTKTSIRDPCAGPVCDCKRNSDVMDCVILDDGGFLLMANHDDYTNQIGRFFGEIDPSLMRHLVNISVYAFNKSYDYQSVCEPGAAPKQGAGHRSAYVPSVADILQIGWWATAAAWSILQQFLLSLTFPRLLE
human Cav2.2, sequence (P54289 957-1103 partner limits assumed): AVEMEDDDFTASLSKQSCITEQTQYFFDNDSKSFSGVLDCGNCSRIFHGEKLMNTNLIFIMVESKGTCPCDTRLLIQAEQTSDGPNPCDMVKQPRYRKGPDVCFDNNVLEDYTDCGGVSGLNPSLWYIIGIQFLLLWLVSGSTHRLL
human Cav2.2, sequence (P54284 whole entry partner): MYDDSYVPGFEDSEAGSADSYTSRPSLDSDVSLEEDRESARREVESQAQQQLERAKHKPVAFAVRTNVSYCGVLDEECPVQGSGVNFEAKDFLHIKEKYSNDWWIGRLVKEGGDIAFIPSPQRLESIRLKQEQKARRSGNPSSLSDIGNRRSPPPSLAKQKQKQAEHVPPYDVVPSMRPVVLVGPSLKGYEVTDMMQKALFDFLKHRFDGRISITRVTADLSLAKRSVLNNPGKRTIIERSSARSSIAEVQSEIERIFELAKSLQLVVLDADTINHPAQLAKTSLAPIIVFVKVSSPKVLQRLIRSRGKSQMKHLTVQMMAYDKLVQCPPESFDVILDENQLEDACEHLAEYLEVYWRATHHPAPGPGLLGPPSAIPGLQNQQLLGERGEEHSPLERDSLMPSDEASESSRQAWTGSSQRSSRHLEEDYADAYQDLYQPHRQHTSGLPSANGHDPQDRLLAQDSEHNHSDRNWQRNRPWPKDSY

| Structure (SMILES) | IC50 |
| --- | --- |
| CCC[C@H](NCC(C)(C)C)C(=O)N[C@H]1CC[C@@H]2CN(S(=O)(=O)c3ccc(C(F)(F)F)cc3)C[C@@H]21 [Example 257, N^2-neopentyl-N^1-((3aR,4S,6aS)-2-{[4-(trifluoromethyl)phenyl]sulfonyl}octahydrocyclopenta[c]pyrrol-4-yl)-L-norvalinamide] | 0.7 µM |
| CCCC[C@H](NC)C(=O)N[C@H]1CC[C@@H]2CN(Cc3ccccc3)C[C@@H]21 [Example 362, N^1-[(3aR,4S,6aS)-2-benzyloctahydrocyclopenta[c]pyrrol-4-yl]-N^2-methyl-L-norleucinamide] | > 30 µM |
| CN[C@@H](CC(C)C)C(=O)N[C@H]1CC[C@@H]2CN(c3cccc(C)c3)C[C@@H]21 [Example 636, N^2-methyl-N-[(3aR,4S,6aS)-2-(3-methylphenyl)octahydrocyclopenta[c]pyrrol-4-yl]-L-leucinamide] | 3.73 µM |
| CC(C)(C)C[C@H](NC(=O)OC(C)(C)C)C(=O)N[C@H]1CC[C@@H]2CN(C(=O)[C@H](CC(C)(C)C)NC(=O)OC(C)(C)C)C[C@@H]21 [Example 463, tert-butyl(S)-1-((3aR,4S,6aS)-4-((S)-2-(tert-butoxycarbonylamino)-4,4-dimethylpentanamido)hexahydrocyclopenta[c]pyrrol-2(1H)-yl)-4,4-dimethyl-1-oxopentan-2-ylcarbamate] | 2.03 µM |
| CN[C@@H](CC(C)(C)C)C(=O)N[C@H]1CC[C@@H]2CN(c3ccc(C(F)(F)F)cn3)C[C@@H]21 [Example 602, N^2,4-dimethyl-N-{(3aR,4S,6aS)-2-[5-(trifluoromethyl)pyridin-2-yl]octahydrocyclopenta[c]pyrrol-4-yl}-L-leucinamide] | 1.88 µM |
| CN[C@@H](CC(C)C)C(=O)N[C@H]1CC[C@@H]2CN(c3ccc(F)c(OC(F)(F)F)c3)C[C@@H]21 [Example 772, N-{(3aR,4S,6aS)-2-[4-fluoro-3-(trifluoromethoxy)phenyl]octahydrocyclopenta[c]pyrrol-4-yl}-N^2-methyl-L-leucinamide] | 1.08 µM |
| CCC[C@H](NC)C(=O)N[C@@H]1CC[C@H]2CN(Cc3ccc(F)cc3)C[C@H]21 [Example 372, N^1-[(3aS,4R,6aR)-2-(4-fluorobenzyl)octahydrocyclopenta[c]pyrrol-4-yl]-N^2-methyl-L-norvalinamide] | > 9 µM |
| Cc1ccc(CN[C@H]2CC[C@@H]3CN(c4cccc(C(F)(F)F)n4)C[C@@H]32)cc1 [Example 649, (3aR,4S,6aS)-N-(4-methylbenzyl)-2-[6-(trifluoromethyl)pyridin-2-yl]octahydrocyclopenta[c]pyrrol-4-amine] | 0.41 µM |
| O=S(=O)(N[C@H]1CC[C@@H]2CN(c3cccc(C(F)(F)F)n3)C[C@@H]21)c1ccc(F)cc1 [Example 705, 4-fluoro-N-{(3aR,4S,6aS)-2-[6-(trifluoromethyl)pyridin-2-yl]octahydrocyclopenta[c]pyrrol-4-yl}benzenesulfonamide] | 3.82 µM |
| FC(F)(F)c1cccc(N2C[C@H]3CC[C@H](NCc4c[nH]c(-c5ccccc5)n4)[C@H]3C2)n1 [Example 688, (3aR,4S,6aS)-N-[(2-phenyl-1H-imidazol-4-yl)methyl]-2-[6-(trifluoromethyl)pyridin-2-yl]octahydrocyclopenta[c]pyrrol-4-amine] | 1.03 µM |
| CN[C@@H](CC(C)C)C(=O)N[C@H]1CC[C@@H]2CN(c3ccc(C#N)cc3)C[C@@H]21 [Example 647, N-[(3aR,4S,6aS)-2-(4-cyanophenyl)octahydrocyclopenta[c]pyrrol-4-yl]-N^2-methyl-L-leucinamide] | 3.77 µM |
| Fc1ccc2[nH]c(CN[C@H]3CC[C@@H]4CN(c5ccc(C(F)(F)F)cc5)C[C@@H]43)cc2c1 [Example 615, (3aR,4S,6aS)-N-[(5-fluoro-1H-indol-2-yl)methyl]-2-[4-(trifluoromethyl)phenyl]octahydrocyclopenta[c]pyrrol-4-amine] | 13.7 µM |
| O=S(=O)(N[C@H]1CC[C@@H]2CN(c3cccc(C(F)(F)F)n3)C[C@@H]21)c1ccc(Cl)cc1 [Example 700, 4-chloro-N-{(3aR,4S,6aS)-2-[6-(trifluoromethyl)pyridin-2-yl]octahydrocyclopenta[c]pyrrol-4-yl}benzenesulfonamide] | 4.96 µM |
| Fc1ccc2[nH]c(CN[C@H]3CC[C@@H]4CN(c5ccc(C(F)(F)F)cn5)C[C@@H]43)cc2c1 [Example 614, (3aR,4S,6aS)-N-[(5-fluoro-1H-indol-2-yl)methyl]-2-[5-(trifluoromethyl)pyridin-2-yl]octahydrocyclopenta[c]pyrrol-4-amine] | 3.33 µM |
| O=C(N[C@H]1CC[C@@H]2CN(c3cccc(C(F)(F)F)n3)C[C@@H]21)c1cc2ccccc2[nH]1 [Example 570, N-{(3aR,4S,6aS)-2-[6-(trifluoromethyl)pyridin-2-yl]octahydrocyclopenta[c]pyrrol-4-yl}-1H-indole-2-carboxamide] | 0.61 µM |
| CN[C@@H](CC(C)C)C(=O)N[C@H]1CC[C@@H]2CN(c3ccccc3C(F)F)C[C@@H]21 [Example 771, N-{(3aR,4S,6aS)-2-[2-(difluoromethyl)phenyl]octahydrocyclopenta[c]pyrrol-4-yl}-N^2-methyl-L-leucinamide] | 2.9 µM |
| O=S(=O)(N[C@H]1CC[C@@H]2CN(c3cccc(C(F)(F)F)n3)C[C@@H]21)c1ccccc1F [Example 703, 2-fluoro-N-{(3aR,4S,6aS)-2-[6-(trifluoromethyl)pyridin-2-yl]octahydrocyclopenta[c]pyrrol-4-yl}benzenesulfonamide] | 3.17 µM |
| O=C(N[C@H]1CC[C@H]2CN(Cc3ccccc3)C[C@H]21)C(C1CCCCC1)C1CCCCC1 (relative stereo) [Example 11, N-[(3aS*,4S*,6aR*)-2-benzyloctahydrocyclopenta[c]pyrrol-4-yl]-2,2-dicyclohexylacetamide] | 4.67 µM |
| N[C@H]1CC[C@@H]2CN(c3cccc(C(F)(F)F)c3)C[C@@H]21 [Example 605, (3aR,4S,6aS)-2-[3-(trifluoromethyl)phenyl]octahydrocyclopenta[c]pyrrol-4-amine] | 4.33 µM |
| FC(F)(F)c1cccc(N2C[C@H]3CC[C@H](NCc4nc(-c5ccccc5)[nH]c4Cl)[C@H]3C2)n1 [Example 726, (3aR,4S,6aS)-N-[(5-chloro-2-phenyl-1H-imidazol-4-yl)methyl]-2-[6-(trifluoromethyl)pyridin-2-yl]octahydrocyclopenta[c]pyrrol-4-amine] | 2.16 µM |
| O=C(N[C@H]1CC[C@H]2CN(Cc3cccc(C(F)(F)F)c3)C[C@H]21)C(c1ccccc1)c1ccccc1 (relative stereo) [Example 135, 2,2-diphenyl-N-{(3aS*,4S*,6aR*)-2-[3-(trifluoromethyl)benzyl]octahydrocyclopenta[c]pyrrol-4-yl}acetamide] | 0.67 µM |

Same assay, conditions: read-out: IC50 (μM) or percent inhibition (* indicates 3 minute incubation, otherwise 60 minute); IC50; 60 minute pre-incubation with compound; IMR32 cells, 80 mM KCl depolarization

| Structure (SMILES) | IC50 |
| --- | --- |
| CN[C@@H](CC(C)C)C(=O)N[C@H]1CC[C@@H]2CN(Cc3cccc(C(F)(F)F)c3)C[C@@H]21 [Example 379, N^2-methyl-N^1-{(3aR,4S,6aS)-2-[3-(trifluoromethyl)benzyl]octahydrocyclopenta[c]pyrrol-4-yl}-L-leucinamide] | 8.6 µM |
| CC(C)C[C@@H](C(=O)N[C@@H]1CC[C@H]2CN(Cc3cccc(C(F)(F)F)c3)C[C@H]21)N(C)C(=O)OC(C)(C)C [Example 155, N^2-(tert-butyloxycarbonyl)-N^2-methyl-N^1-{(3aS,4R,6aR)-2-[3-(trifluoromethyl)benzyl]octahydrocyclopenta[c]pyrrol-4-yl}-L-leucinamide] | 0.69 µM |
| O=S(=O)(c1cccc(C(F)(F)F)c1)N(C1CC1)[C@H]1CC[C@H]2CN(CCCCCC(c3ccc(F)cc3)c3ccc(F)cc3)C[C@H]21 (relative stereo) [Example 202, N-{(3aS*,4S*,6aR*)-2-[6,6-bis(4-fluorophenyl)hexyl]octahydrocyclopenta[c]pyrrol-4-yl}-N-cyclopropyl-3-(trifluoromethyl)benzenesulfonamide] | 0.83 µM |
| CCC[C@H](NC)C(=O)N[C@H]1CC[C@@H]2CN(S(=O)(=O)Cc3ccc(C(F)(F)F)cc3)C[C@@H]21 [Example 549, N^2-methyl-N^1-((3aR,4S,6aS)-2-{[4-(trifluoromethyl)benzyl]sulfonyl}octahydrocyclopenta[c]pyrrol-4-yl)-L-norvalinamide] | 2.73 µM |
| CN[C@@H](CC(C)C)C(=O)N[C@@H]1CC[C@H]2CN(S(=O)(=O)c3ccccc3)C[C@H]21 [Example 448, N^2-methyl-N^1-[(3aS,4R,6aR)-2-(phenylsulfonyl)octahydrocyclopenta[c]pyrrol-4-yl]-L-leucinamide] | 12.4 µM |
| O=C(N[C@H]1CC[C@@H]2CN(Cc3ccccc3)C[C@@H]21)C(c1ccccc1)C1CCCC1 (stereo partly drawn) [Example 34, N-[(3aR,4S,6aS)-2-benzyloctahydrocyclopenta[c]pyrrol-4-yl]-2-cyclopentyl-2-phenylacetamide] | 1.51 µM |
| O=C(CCCC(c1ccc(F)cc1)c1ccc(F)cc1)N[C@@H]1CC[C@H]2CN(Cc3cccc(C(F)(F)F)c3)C[C@H]21 (relative stereo) [Example 142, 5,5-bis(4-fluorophenyl)-N-{(3aS*,4R*,6aR*)-2-[3-(trifluoromethyl)benzyl]octahydrocyclopenta[c]pyrrol-4-yl}pentanamide] | 0.86 µM |
| CC(C)C[C@H](NS(=O)(=O)C1CC1)C(=O)N[C@H]1CC[C@H]2CN(Cc3cccc(C(F)(F)F)c3)C[C@H]21 [Example 174, N^2-(cyclopropylsulfonyl)-N^1-{(3aS,4S,6aR)-2-[3-(trifluoromethyl)benzyl]octahydrocyclopenta[c]pyrrol-4-yl}-L-leucinamide] | 1.04 µM |
| O=C(N[C@@H]1CC[C@H]2CN(Cc3ccc(F)cc3)C[C@H]21)[C@@H]1CCCCN1 [Example 368, (2S)-N-[(3aS,4R,6aR)-2-(4-fluorobenzyl)octahydrocyclopenta[c]pyrrol-4-yl]piperidine-2-carboxamide] | 12.4 µM |
| CC(C)C[C@H](NC(=O)NC1CCCC1)C(=O)N[C@@H]1CC[C@H]2CN(Cc3cccc(C(F)(F)F)c3)C[C@H]21 [Example 181, N^2-[(cyclopentylamino)carbonyl]-N^1-{(3aS,4R,6aR)-2-[3-(trifluoromethyl)benzyl]octahydrocyclopenta[c]pyrrol-4-yl}-L-leucinamide] | 0.94 µM |
